Earlier results, collected in patent US10927398B2, “Compositions for CYP450 phenotyping using saliva samples” (Concordia University, Inc., priority 2015, dated 2021).
Like-named read-outs stand apart in the source and are kept apart here.

How the values were obtained:
[1] = cited from earlier work
plasma protein = conditions: cited from earlier work
[2] = cited from earlier work; remark: listed apart in the source
[3] = Table of Exemplary Drugs, CYP2C9
[4] = Table of Exemplary Drugs, CYP2C19
[5] = Table of Exemplary Drugs, CYP2D6
[6] = Table of Exemplary Drugs, CYP3A4
[7] = Table of Exemplary Drugs, CYP1A2

**Q.** Which results are given for `CC(C)n1c(/C=C/C(O)CC(O)CC(=O)O)c(-c2ccc(F)cc2)c2ccccc21` (centres unmarked) [Fluvastatin]?
**A.** ORAL BIOAVAILABILITY [1, 3]: 24%; PLASMA PROTEIN BINDING (plasma protein; [3]): 98%; HALF-LIFE [2, 3]: 2.5 h

**Q.** Which “ORAL BIOAVAILABILITY” value [1, 4] does the source give for `COc1ccc2c(c1)c(CC(=O)O)c(C)n2C(=O)c1ccc(Cl)cc1` [Indomethacin] here?
**A.** 100%

**Q.** What about the “PLASMA PROTEIN BINDING” value (plasma protein; [4]) of the same compound?
**A.** 99%

**Q.** And the “HALF-LIFE” value [2, 4]?
**A.** 4.5 h

**Q.** Which “ORAL BIOAVAILABILITY” value [1, 3] does the source give for `CNCCC(Oc1ccc(C(F)(F)F)cc1)c1ccccc1` (centres unmarked) [Fluoxetine] here?
**A.** 60-80%

**Q.** And the “ORAL BIOAVAILABILITY” value [1, 5]?
**A.** 60-80%

**Q.** And the “PLASMA PROTEIN BINDING” value (plasma protein; [3])?
**A.** 94.5%^

**Q.** And the “PLASMA PROTEIN BINDING” value (plasma protein; [5])?
**A.** 94.5%^

**Q.** What about the HALF-LIFE [2, 3] of the same compound?
**A.** 96 to 140 h

**Q.** And the HALF-LIFE [2, 5]?
**A.** 96 to 140 h

**Q.** For `COc1ccc2c3c1O[C@H]1C(=O)CC[C@@]4(O)[C@@H](C2)N(C)CC[C@]314` [Oxycodone], which “ORAL BIOAVAILABILITY” value [1, 5] is on record?
**A.** 60-87%

**Q.** What about the “ORAL BIOAVAILABILITY” value [1, 6] of the same compound?
**A.** 60-87%

**Q.** And the “PLASMA PROTEIN BINDING” value (plasma protein; [5])?
**A.** 45%

**Q.** And the “PLASMA PROTEIN BINDING” value (plasma protein; [6])?
**A.** 45%

**Q.** And the “HALF-LIFE” value [2, 5]?
**A.** 5.6 h

**Q.** And the “HALF-LIFE” value [2, 6]?
**A.** 5.6 h

**Q.** What does the source list for `CC(C)N(CCC(C(N)=O)(c1ccccc1)c1ccccn1)C(C)C` (centres unmarked) [Disopyramide (Norpace), Disopyramide]?
**A.** ORAL BIOAVAILABILITY [1, 6]: 80%; PLASMA PROTEIN BINDING (plasma protein; [6]): 50-65% ^; HALF-LIFE [2, 6]: 6.7 h

**Q.** For `Cc1ccsc1C(=CCCN1CCC[C@@H](C(=O)O)C1)c1sccc1C` [Tiagabine (Gabitril), Tiagabine], which “ORAL BIOAVAILABILITY” value [1, 6] is on record?
**A.** 90%

**Q.** What about the “PLASMA PROTEIN BINDING” value (plasma protein; [6]) of the same compound?
**A.** 96%

**Q.** And the “HALF-LIFE” value [2, 6]?
**A.** 7 to 9 h

**Q.** Which results are given for `CC(C)[C@H]1CC[C@H](C(=O)N[C@H](Cc2ccccc2)C(=O)O)CC1` [Nateglinide]?
**A.** ORAL BIOAVAILABILITY [1, 3]: 73%; PLASMA PROTEIN BINDING (plasma protein; [3]): 98%; HALF-LIFE [2, 3]: 1.5 h

**Q.** Which “ORAL BIOAVAILABILITY” value [1, 6] does the source give for `CC(=O)N1CCN(c2ccc(OCC3COC(Cn4ccnc4)(c4ccc(Cl)cc4Cl)O3)cc2)CC1` (centres unmarked) [Ketoconazole (Nizoral), Ketoconazole] here?
**A.** 75%

**Q.** And the “PLASMA PROTEIN BINDING” value (plasma protein; [6])?
**A.** 99%

**Q.** What about the “HALF-LIFE” value [2, 6] of the same compound?
**A.** 2 to 8 h

**Q.** For `CC(C(=O)O)c1ccc(C(=O)c2cccs2)cc1` (centres unmarked) [Suprofen], which “ORAL BIOAVAILABILITY” value [1, 3] is on record?
**A.** 92%

**Q.** What about the “PLASMA PROTEIN BINDING” value (plasma protein; [3]) of the same compound?
**A.** >99%

**Q.** What about the “HALF-LIFE” value [2, 3] of the same compound?
**A.** 2 to 4 h

**Q.** Which results are given for `CC(=O)Nc1ccc(O)cc1` [Paracetamol]?
**A.** ORAL BIOAVAILABILITY [1, 7]: 85-98%; PLASMA PROTEIN BINDING (plasma protein; [7]): 10-25% ^; HALF-LIFE [2, 7]: 1 to 4 h

**Q.** Which results are given for `C=CCc1ccccc1OCC(O)CNC(C)C` (centres unmarked) [Alprenolol]?
**A.** ORAL BIOAVAILABILITY [1, 5]: 20%; PLASMA PROTEIN BINDING (plasma protein; [5]): 80%; HALF-LIFE [2, 5]: 2 to 3 h

**Q.** What does the source list for `C#Cc1cccc(Nc2ncnc3cc(OCCOC)c(OCCOC)cc23)c1` [Erlotinib]?
**A.** ORAL BIOAVAILABILITY [1, 7]: 60-100%; ORAL BIOAVAILABILITY [1, 6]: 60%; PLASMA PROTEIN BINDING (plasma protein; [7]): 93%; PLASMA PROTEIN BINDING (plasma protein; [6]): 93%; HALF-LIFE [2, 7]: 36.2 h

**Q.** Which results are given for `CCN[C@@H](C)Cc1cccc(C(F)(F)F)c1` [Dexfenfluramine]?
**A.** ORAL BIOAVAILABILITY ([1]; in vivo, po): 68%; PLASMA PROTEIN BINDING (plasma protein; [5]): 36%; HALF-LIFE ([2]; in vivo): 17 to 20 h

**Q.** Which “ORAL BIOAVAILABILITY” value ([1]; in vivo, po) does the source give for `C[C@]12CC[C@H]3[C@@H](CCC4=CC(=O)CC[C@@]43C)[C@@H]1CC[C@@H]2O` [Testosterone] here?
**A.** Varies

**Q.** And the “PLASMA PROTEIN BINDING” value (plasma protein; plasma)?
**A.** 98%

**Q.** What about the “HALF-LIFE (hrs)” value ([2]; in vivo) of the same compound?
**A.** varies

**Q.** With `Cc1ccc(S(=O)(=O)NC(=O)NN2CC3CCCC3C2)cc1` (centres unmarked) [Gliclazide] as the compound, how does the “ORAL BIOAVAILABILITY” value [1, 4] read?
**A.** 80%

**Q.** What about the “PLASMA PROTEIN BINDING” value (plasma protein; [4]) of the same compound?
**A.** 85-99% ^

**Q.** And the “HALF-LIFE” value [2, 4]?
**A.** 8 to 12 h

**Q.** Which results are given for `CN1C[C@H](C(=O)N[C@]2(C)O[C@@]3(O)[C@@H]4CCCN4C(=O)[C@H](Cc4ccccc4)N3C2=O)C[C@@H]2c3cccc4[nH]cc(c34)C[C@H]21` [Dihydroergotamine]?
**A.** ORAL BIOAVAILABILITY ([1]; in vivo, po): <32%; PLASMA PROTEIN BINDING (plasma protein; plasma): 93%; HALF-LIFE ([2]; in vivo): 9 to 10 h

**Q.** Which “ORAL BIOAVAILABILITY” value [1, 3] does the source give for `CN(C/C=C/C#CC(C)(C)C)Cc1cccc2ccccc12` [Terbinafine] here?
**A.** 40%

**Q.** And the “PLASMA PROTEIN BINDING” value (plasma protein; [3])?
**A.** >99%

**Q.** And the “HALF-LIFE” value [2, 3]?
**A.** 22 to 26 h

**Q.** What does the source list for `CCc1ccc(CCOc2ccc(CC3SC(=O)NC3=O)cc2)nc1` (centres unmarked) [Pioglitazone]?
**A.** ORAL BIOAVAILABILITY [1, 6]: 50%; PLASMA PROTEIN BINDING (plasma protein; [6]): >99%; HALF-LIFE [2, 6]: 3 to 7 h

**Q.** What does the source list for `COc1cccc2c1C(=O)c1c(O)c3c(c(O)c1C2=O)C[C@@](O)(C(=O)CO)C[C@@H]3O[C@H]1C[C@H](N)[C@H](O)[C@H](C)O1` [Doxorubicin (Adriamycin), Doxorubicin]?
**A.** ORAL BIOAVAILABILITY [1, 6]: 5%; PLASMA PROTEIN BINDING (plasma protein; [6]): 74-76% ^; HALF-LIFE [2, 6]: 20 to 48 h

**Q.** For `CCOc1cc(CC(=O)N[C@@H](CC(C)C)c2ccccc2N2CCCCC2)ccc1C(=O)O` [Repaglinide (Prandin), Repaglinide], which “ORAL BIOAVAILABILITY” value [1, 6] is on record?
**A.** 56%

**Q.** And the “PLASMA PROTEIN BINDING” value (plasma protein; [6])?
**A.** >98%

**Q.** What about the “HALF-LIFE” value [2, 6] of the same compound?
**A.** 1 h

**Q.** For `C=C1C[C@@H]2[C@H](CC[C@]3(C)C(=O)CC[C@@H]23)[C@@]2(C)C=CC(=O)C=C12` [Exemestane (Aromasin), Exemestane], which “ORAL BIOAVAILABILITY” value [1, 6] is on record?
**A.** 42%

**Q.** What about the “PLASMA PROTEIN BINDING” value (plasma protein; [6]) of the same compound?
**A.** 90%

**Q.** What about the “HALF-LIFE” value [2, 6] of the same compound?
**A.** 24 h
